Test results: patent US7709516B2, “Helix 12 directed non-steroidal antiandrogens” (Endorecherche, Inc., priority 2005, dated 2010)
Where two headings read alike, the source gives them in different places.

Tests used:
[1] = system: rat prostate, seminal vesicle, levator ani muscle; test: Systemic antiandrogenic activity in orchidectomized immature male rats with DHT implant; type: in vivo; settings: Rattus norvegicus, 168 h, rat +DHT, 0.5 mg/animal daily 7 days
Human Androgen Receptor = biological target: T1, Human Androgen Receptor (Homo sapiens, UniProt P10275); test: Androgen receptor binding assay ([3H]R1881, HAP) in cytosol of HEK-293 cells transfected with hAR; settings: relative to R1881 = 100, transfected cells
T1 sequence (P10275 1-920): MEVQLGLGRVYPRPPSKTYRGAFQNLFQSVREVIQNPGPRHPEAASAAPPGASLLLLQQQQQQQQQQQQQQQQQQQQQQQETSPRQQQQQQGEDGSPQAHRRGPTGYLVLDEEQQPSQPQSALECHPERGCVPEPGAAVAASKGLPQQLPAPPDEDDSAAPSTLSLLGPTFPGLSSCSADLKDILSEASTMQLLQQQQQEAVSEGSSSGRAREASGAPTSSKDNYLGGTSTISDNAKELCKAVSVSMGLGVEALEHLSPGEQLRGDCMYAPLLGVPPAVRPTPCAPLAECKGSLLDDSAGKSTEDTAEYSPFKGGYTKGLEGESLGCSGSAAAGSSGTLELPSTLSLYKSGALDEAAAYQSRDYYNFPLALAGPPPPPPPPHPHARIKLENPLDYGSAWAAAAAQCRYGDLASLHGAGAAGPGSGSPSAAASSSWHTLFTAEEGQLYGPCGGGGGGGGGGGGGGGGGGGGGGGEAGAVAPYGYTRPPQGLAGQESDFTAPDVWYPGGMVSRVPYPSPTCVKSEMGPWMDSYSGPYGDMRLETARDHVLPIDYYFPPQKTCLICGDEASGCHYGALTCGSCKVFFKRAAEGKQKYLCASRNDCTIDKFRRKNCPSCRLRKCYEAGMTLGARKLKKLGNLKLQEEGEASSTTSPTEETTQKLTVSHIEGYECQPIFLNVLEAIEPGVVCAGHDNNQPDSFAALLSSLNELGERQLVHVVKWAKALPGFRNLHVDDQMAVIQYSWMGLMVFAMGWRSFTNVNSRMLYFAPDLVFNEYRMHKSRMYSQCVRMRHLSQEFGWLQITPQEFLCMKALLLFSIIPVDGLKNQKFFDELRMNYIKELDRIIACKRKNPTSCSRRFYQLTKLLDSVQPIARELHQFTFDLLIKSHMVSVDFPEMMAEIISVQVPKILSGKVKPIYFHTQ

[2] = system: Shionogi mouse mammary carcinoma cells; test: Androgenic/antiandrogenic activity: inhibition of DHT-stimulated Shionogi cell number; type: cell-based; settings: Mus musculus, DHT-stimulated Shionogi cell number
[3] = read-out: Lev Ani % inhibition, Table 1, s.c. or p.o. (route not marked), levator ani
[4] = read-out: Prostate % inhibition, Table 1, s.c. or p.o. (route not marked in cell)
[5] = read-out: SV % inhibition, Table 1, s.c. or p.o. (route not marked), seminal vesicle
[6] = read-out: Shionogi Antiandrogenic Activity IC50, Table 1

| Compound | inhibition in vivo at 0.5 mg [1, 3] | inhibition in vivo at 0.5 mg [1, 4] | inhibition in vivo at 0.5 mg [1, 5] | Human Androgen Receptor Binding (%) RBA R1881 = 100 (Human Androgen Receptor; Table 1) | IC50 [2, 6] | IC50 ([2]; Table 1, read-out: Shionogi Antiandrogenic Activity IC50) | inhibition in vivo at 0.5 mg ([1]; read-out: Lev Ani % inhibition, Table 2, s.c. or p.o. (route not marked), levator ani) | inhibition in vivo at 0.5 mg ([1]; read-out: Prostate % inhibition, Table 2, s.c. or p.o. (route not marked)) | inhibition in vivo at 0.5 mg ([1]; read-out: SV % inhibition, Table 2, s.c. or p.o. (route not marked), seminal vesicle) | Human Androgen Receptor Binding (%) RBA R1881 = 100 (Human Androgen Receptor; Table 2) | IC50 ([2]; read-out: Shionogi Antiandrogenic Activity IC50, Table 2) |
| --- | --- | --- | --- | --- | --- | --- | --- | --- | --- | --- | --- |
| CCC(=O)c1cccc(OCCCN2C(=S)N(c3ccc(C#N)c(C(F)(F)F)c3)C(=O)C2(C)C)c1 [EM-7113, 4-{4,4-dimethyl-5-oxo-3-[3-(3-propionyl-phenoxy)-propyl]-2-thioxo-imidazolidin-1-yl}-2-trifluoromethyl-benzonitrile] | 58% | 42% | 70% | 30.5% | 69 nM | – | – | – | – | – | – |
| CCC(CC)NCc1ccc(OCCCN2C(=S)N(c3ccc(C#N)c(C(F)(F)F)c3)C(=O)C2(C)C)cc1 [EM-7144] | 41% | 45% | 61% | 14.0% | 22.5 nM | – | – | – | – | – | – |
| CCNCc1ccc(OCCCN2C(=S)N(c3ccc(C#N)c(C(F)(F)F)c3)C(=O)C2(C)C)cc1 [EM-7148] | 75% | 58% | 85% | 12.0% | 6.1 nM | – | – | – | – | – | – |
| CCC(=O)c1ccc(OCCCN2C(=S)N(c3ccc(C#N)c(C(F)(F)F)c3)C(=O)C2(C)C)cc1 [EM-7154] | 6% | 8% | 31% | 64.7% | 20 nM | – | – | – | – | – | – |
| CC(=O)c1ccc(OCCCN2C(=S)N(c3ccc(C#N)c(C(F)(F)F)c3)C(=O)C2(C)C)cc1 [EM-7168] | 0% | 14% | 54% | 49.3% | 13 nM | – | – | – | – | – | – |
| CC(NC1CC1)c1ccc(OCCCN2C(=S)N(c3ccc(C#N)c(C(F)(F)F)c3)C(=O)C2(C)C)cc1 (centres unmarked) [EM-7169] | 31% | 45% | 72% | 21.7% | 11 nM | – | – | – | – | – | – |
| CN(C)Cc1ccc(OCCCN2C(=S)N(c3ccc(C#N)c(C(F)(F)F)c3)C(=O)C2(C)C)cc1 [EM-7192] | 0% | 53% | 75% | 15.6% | 11.5 nM | – | – | – | – | – | – |
| CC(C)NC(=O)c1ccc(OCCCN2C(=S)N(c3ccc(C#N)c(C(F)(F)F)c3)C(=O)C2(C)C)cc1 [EM-7202] | 0% | 26% | 63% | 37.0% | 36.5 nM | – | – | – | – | – | – |
| CCC(NC(C)C)c1ccc(OCCCN2C(=S)N(c3ccc(C#N)c(C(F)(F)F)c3)C(=O)C2(C)C)cc1 (centres unmarked) [EM-7203] | 4% | 37% | 66% | 48.4% | 8.9 nM | – | – | – | – | – | – |
| CCC(C)NCc1ccc(OCCCN2C(=S)N(c3ccc(C#N)c(C(F)(F)F)c3)C(=O)C2(C)C)cc1 (centres unmarked) [EM-7225] | 14% | 52% | 71% | 15.3% | 12.5 nM | – | – | – | – | – | – |
| CCCNCc1ccc(OCCCN2C(=S)N(c3ccc(C#N)c(C(F)(F)F)c3)C(=O)C2(C)C)cc1 [EM-7227] | 1% | 35% | 77% | 18.0% | 10.8 nM | – | – | – | – | – | – |
| CC1(C)C(=O)N(c2ccc(C#N)c(C(F)(F)F)c2)C(=S)N1CCCOc1ccc(CN2CCCC2)cc1 [EM-7232, 4-{4,4-Dimethyl-5-oxo-3-[3-(4-pyrrolidin-1-ylmethyl-phenoxy)-]-2-thioxo-imidazolidin-1-yl}-2-trifluoro-benzonitrile] | 70% | 45% | 84% | 19.0% | 7.6 nM | – | – | – | – | – | – |
| CC(C)N(C)Cc1ccc(OCCCN2C(=S)N(c3ccc(C#N)c(C(F)(F)F)c3)C(=O)C2(C)C)cc1 [EM-7233] | 70% | 54% | 82% | 15.0% | 12 nM | – | – | – | – | – | – |
| CC(C)NC(C)c1ccc(OCCCN2C(=S)N(c3ccc(C#N)c(C(F)(F)F)c3)C(=O)C2(C)C)cc1 (centres unmarked) [EM-7234, 4-(3-{3-[4-(1-Isopropylamino-ethyl)-phenoxy]-propyl}-4,4-dimethyl-5-oxo-2-thioxo-imidazolidin-1-yl)-2-tifluoromethyl-benzonitile] | 75% | 50% | 82% | 30.4% | 6.2 nM | – | – | – | – | – | – |
| CCN(C)Cc1ccc(OCCCN2C(=S)N(c3ccc(C#N)c(C(F)(F)F)c3)C(=O)C2(C)C)cc1 [EM-7242] | 55% | 41% | 72% | 18.0% | 9.8 nM | – | – | – | – | – | – |
| CC(c1ccc(OCCCN2C(=S)N(c3ccc(C#N)c(C(F)(F)F)c3)C(=O)C2(C)C)cc1)N(C)C (centres unmarked) [EM-7243] | 73% | 34% | 72% | 14.0% | 14 nM | – | – | – | – | – | – |
| CC1(C)C(=O)N(c2ccc(C#N)c(C(F)(F)F)c2)C(=S)N1CCCOc1ccc(CN2CCOCC2)cc1 [EM-7248] | 44% | 37% | 62% | 32.4% | 19 nM | – | – | – | – | – | – |
| COC(=O)c1ccc(OCCCN2C(=S)N(c3ccc(C#N)c(C(F)(F)F)c3)C(=O)C2(C)C)cc1 [EM-7260] | 0% | 25% | 47% | 93.3% | 17 nM | – | – | – | – | – | – |
| Cc1cc(CNC(C)C)ccc1OCCCN1C(=S)N(c2ccc(C#N)c(C(F)(F)F)c2)C(=O)C1(C)C [EM-7297] | 31% | 29% | 37% | 59.0% | 6.3 nM | – | – | – | – | – | – |
| CN(C)Cc1ccc(OCCCN2C(=O)N(c3ccc(C#N)c(C(F)(F)F)c3)C(=O)C2(C)C)cc1 [EM-7334, 4-{3-[3-(4-Dimethylaminomethyl-phenoxy)-propyl]-4,4-dimethyl-2,5-dioxo-imidazolidin-1-yl}-2-trifluoromethyl-benzonitrile] | – | 14% | 26% | 0.5% | – | 118 nM | – | – | – | – | – |
| CC1(C)C(=O)N(c2ccc(C#N)c(C(F)(F)F)c2)C(=S)N1CCCOc1ccc(CN2CCC(O)C2)cc1 (centres unmarked) [EM-7365] | 19% | 22% | 43% | 24.0% | 6 nM | – | – | – | – | – | – |
| Cc1cc(CN2CCOCC2)ccc1OCCCN1C(=S)N(c2ccc(C#N)c(C(F)(F)F)c2)C(=O)C1(C)C [EM-7366] | 16% | 26% | 70% | 209.0% | 22 nM | – | – | – | – | – | – |
| CC1(C)C(=O)N(c2ccc(C#N)c(C(F)(F)F)c2)C(=S)N1CCCOc1ccc(CN2CCC(=O)C2)cc1 [EM-7371] | 21% | 16% | 48% | 53.0% | 15 nM | – | – | – | – | – | – |
| Cc1cc(CN2CCCC2)ccc1OCCC1(O)CCN(c2ccc(C#N)c(C(F)(F)F)c2)CC1 [EM-7657] | – | – | – | – | – | – | 55% | 24% | 41% | 3.0% | 22 nM |
